Measured values published in US10416153B2, “Chemical fluorescent probes for detecting biofilms” (priority 2015, dated 2019).

Columns and labels:
[1] = test system: P. aeruginosa (PAO1-GFP); test: Eye infection model, imaging of infected cornea under TRITC channel; assay type: in vivo; details: mouse cornea infected with PAO1-GFP for 2 days, 10 minutes incubation with compound
Protocol: (A) Propagation of Pseudomonas aeruginosa (PAO1-GFP) after infecting into mouse eyes. GFP signals were detected after 12 hours later after infecting bacteria and signals were fully saturated after 24 hours later; Scale bar=2 mm. (B) Tests of amyloid targeting compounds in eye infection models. The model was generated by inoculation of a GFP tagged P. aeruginosa PAO1 strain into the eye after making scratches in cornea. Images were taken in bright field and TRITC from ketamine/xylazine anesthetized mice and compounds signals were examined under TRITC channel after incubation with compounds for 10 minutes at room temperature. Scale bar=2 mm.
P. aeruginosa (PAO1-GFP) was grown at 37° C. in ABTGC media for 16 h. 500 μL of cultured PAO1-GFP was transferred to 1.5 mL Eppendorf tube and centrifuged at 14 000 g for 3 min. Supernatant was removed and pellet was washed with PBS buffer 3 times. Finally, pellet was resuspended in 250 μL of PBS buffer.
Mice were anesthetized ketamine/xylazine by peritoneal injection before scratches were made in cornea with blade. PAO1-GFP (1 μL, 2×107˜10^8 CFU) dissolved in PBS buffer was treated in left eye and PBS buffer was treated in right eye. P. aeruginosa inoculated mice were incubated for 2 days before in vivo experiments. Animal handling was in accordance with the Institutional Aminal Care and Use Committee of Singapore Bioimaging Consortium (Agency of Science, Technology and Research, Singapore).
Biofilm is stained by amyloid targeting compounds through interacting with FAP proteins which is one of the components for intact biofilm. Thus, amyloid targeting compounds were tested in eye infection model which is one of the naturally reported symptoms of P. aeruginosa containing biofilms. Eye infection model was generated in black mouse. […] GFP signals were detected after 12 hours incubation with P. aeruginosa-GFP bacteria.
Fluorescence signals under TRITC channel were checked to confirm infection on cornea and amyloid compounds were tested under TRITC channel after incubation for 10 minutes. […]

[2] = target: purified amyloid (Pseudomonas aeruginosa, UniProt Q9I2F0); test: Surface plasma resonance assay with purified amyloid immobilized on chips; assay type: binding
Protocol: In a biofilm screening, two different types of biofilms (biofilm versus amyloid deficient biofilm) were treated with compounds and hits were identified by selective staining of biofilms containing amyloid structures. Thus, the binding affinity of four compounds with the purified amyloid subunit (fibril) protein was validated by surface plasma resonance assay. The subunit protein was immobilized on chips and each of compounds was flowed continuously. Thioflavin T, BDN1 B2 and BDNAC3 E6 were tested with hit compounds. […] (A) TEM images of purified amyloid proteins. Scale bar=400 nm. (B) Surface plasma resonance assay of four amyloid targeting compounds with purified amyloid.
Amyloids were prepared in HEPES buffer (0.01 M HEPES, pH 7.4, 0.15 M NaCl, 3 mM EDTA and 0.005% P20). Amyloid fibers were fragmented with sonication at 80 Hz for 10 s and centrifuged at 14 000 g for 30 s to remove any large fibers. Concentrate (40 μL) was mixed with 10 mM sodium acetate (120 μL), pH 5.5 right before immobilization.
SPR experiments were performed at 25° C. using Biacore T-200 biosensor with research grade CM5-S sensor chips (Biacore, GE Healthcare). Carboxymethylated CM5-S chips were activated using 70 μL of 0.2 M 1-ethyl-3-[3-(dimethylamino)propyl] carbodiimide hydrochloride (EDC) and 0.05 M N-hydroxysuccinimide (NHS) in a 1:1 ratio. Amyloid in sodium acetate solution (100 μL) was injected over the activated surface until an immobilization level of 7700 response units (RU) was reached. Ethanolamine hydrochloride (1.0 M), pH 8.5 was injected across the surface for 5 min to block any residual activated-unreacted carboxyl groups. Compounds were dissolved into HEPES buffer containing final concentration of 5% DMSO and serially diluted to 340 nM, 1.03, 3.09, 9.26, 27.78, 83.33 μM. Tht+ was prepared similarly as positive control. Replicates of the diluted compounds were injected across a unmodified flow cell and amyloid-immobilized flow cell in a serial manner for association phase of 60 s followed by dissociation phase of 5 min. […] The chip surface was rinsed using HEPES buffer. All sensorgrams were double-referenced with responses from unmodified channel and blank HEPES buffer injections. Equilibrium responses from the compounds were plotted against logarithmic of their corresponding concentrations where the binding affinities were calculated from 50% saturation.
First batch of screening was done under varying amyloid expression conditions for specifically isolating amyloid targeting compounds and four compounds were isolated from cell based screening. […] Finally, four compounds were examined by surface plasma resonance assay whether those have binding specificity with putative target, namely amyloid. Four hit compounds were examined with thioflavin T and two negative controls on chips after immobilizing purified amyloid.

[3] = test system: Immune cells; test: Mouse implant model, silicone tubes without P. aeruginosa precoating; assay type: in vivo, BALB/c mice; details: same amount injected via the peritoneal cavity; data not shown
Protocol: After anesthesia of mice with ketamine/xylazine mix by intraperitoneal injection, the mouse was placed ventral side up on plate. Fur was clipped and the skin was swabbed with 70% ethanol. An incision of approximately 0.5-1 cm was made in the left groin area. Then an implant prepared the day before was inserted into peritoneal cavity via the incision. The incision was closed with a suture and healed on a warm pad at 26-28° C.
The inventors also applied a mouse implant model to test the capacity of CDy11 (BDNAC3 D8) to detect P. aeruginosa biofilms in a surgical format. Silicone tubes were precolonized by bacteria and subsequently inserted into the peritoneal cavity 1 day before the experiment. BALB/c mice were assigned to each of the two groups and 100 μM CDy11 (200 μL) was injected into the mice via the peritoneal cavity 2 h before recovering the implants. As a mock control, a similar volume of buffer was injected into the second set of mice. In addition, CDy11 was injected into a set of mice which had been installed with uncolonized silicone tubes in the peritoneal cavity.
All silicone tubes were collected after 2 h incubation to observe CDy11 fluorescence of the inner surface of the silicone tube by means of laser confocal scanning microscopy. […] The silicone tubes without P. aeruginosa precoating were also examined by injection of same amount of CDy11. […]

[4] = test system: P. aeruginosa biofilm (PAO1-GFP); test: Mouse implant model, silicone tubes coated with PAO1-GFP biofilm; assay type: in vivo, BALB/c mice; details: 100 μM (200 μL) injected via the peritoneal cavity, 2 h before recovering implants; listed as CDy11
Source text: (§1) CLSM images of a GFP tagged P. aeruginosa PAO1 strain colonizing silicone implants after removal from BALB/c mice at day 1 post insertion. Green fluorescent areas represent P. aeruginosa. Insertion of silicone tube into mice which was precoated with (A) PAO1Δfap-GFP and (B) PAO1-GFP biofilms. Images of the microcolonies adhering to the silicone implants with CDy11. Only PAO1-GFP biofilms coated silicone tube was stained by CDy11; Scale bars=10 μm.
(§2) One bacterial colony (PAO1-GFP) was picked up from the plate to inoculate an overnight culture in LB (Luria Broth) media in 37° C. incubator with 110 rpm/min for 20 h. Silicone tubes (Ole Dich) were cut with a thickness of 4 mm and were sterilized in 0.5% NaClO for overnight. Next day, 25 mL of overnight cultured media was transferred to 50 mL conical tube and pellet was collected by centrifuging at 3000 rpm for 10 min. Subsequently, pellet was suspended with 2 mL of LB media before optical density was observed under 600 nm wavelength.
(§3) Sterilized silicone was washed twice in 0.9% NaCl solution. Silicone tubes (8 pieces) in 50 mL flask were incubated with 10 mL of diluted bacteria (OD600=0.1) in 0.9% NaCl solution in rotationary shaker at 37° C. with 110 rpm/min for 20 h. […]
(§4) All silicone tubes were collected after 2 h incubation to observe CDy11 fluorescence of the inner surface of the silicone tube by means of laser confocal scanning microscopy. […]

[5] = test system: PAO1Δfap-GFP strain biofilm; test: Mouse implant model, silicone tubes coated with PAO1Δfap-GFP biofilm; assay type: in vivo, BALB/c mice; details: 100 μM (200 μL) injected via the peritoneal cavity, 2 h before recovering implants
Source text: as §1, §2, §3, §4

Sequence of purified amyloid (Q9I2F0 25-340): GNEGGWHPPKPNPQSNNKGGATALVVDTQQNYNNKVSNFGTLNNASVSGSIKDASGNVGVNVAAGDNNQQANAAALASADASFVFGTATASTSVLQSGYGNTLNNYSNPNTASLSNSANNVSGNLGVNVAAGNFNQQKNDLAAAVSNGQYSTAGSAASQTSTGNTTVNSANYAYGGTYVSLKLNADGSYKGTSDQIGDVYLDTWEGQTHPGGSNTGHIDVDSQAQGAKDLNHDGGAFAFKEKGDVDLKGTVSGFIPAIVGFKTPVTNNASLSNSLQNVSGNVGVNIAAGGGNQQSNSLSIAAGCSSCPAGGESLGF

| Structure (SMILES) | visualization of infected eyes [1] | Kd [2] [µM] | staining of immune cells in silicone tubes without P. aeruginosa precoating [3] | staining of PAO1-GFP biofilm coated silicone tube [4] | staining of PAO1Δfap-GFP biofilm coated silicone tube [5] |
| --- | --- | --- | --- | --- | --- |
| COc1cc(Cl)cc(/C=C/c2cc(C)c3n2[B-](F)(F)[N+]2=CC=CC2=C3c2ccc(N)cc2)c1OC [BDN2 H2] | visualized | 61 ± 3 |  |  |  |
| COc1cc(/C=C/c2cc(C)c3n2[B-](F)(F)[N+]2=CC=CC2=C3c2ccc(N)cc2)c(Br)c(Br)c1O [BDN3 F3] |  | 16 ± 1 |  |  |  |
| Cc1cc(/C=C/c2ccc(-c3ccc([N+](=O)[O-])cc3)o2)n2c1C(c1ccc(N)cc1)=C1C=CC=[N+]1[B-]2(F)F [BDN3 G7] | visualized | 28 ± 5 |  |  |  |
| COc1ccc(/C=C/c2cc(C)c3n2[B-](F)(F)[N+]2=CC=CC2=C3c2ccc(NC(C)=O)cc2)c(F)c1 [BDNAC3 D8] | visualized | 29 ± 2 | not stained | specifically stained | not stained |
| Cc1ccc2c(c1)sc(-c1ccc(N(C)C)cc1)[n+]2C [thioflavin T, reference compound] |  | 85 ± 7 |  |  |  |
